Literature values as cited in article PMC12729893, “Untargeted UHPLC-HRMS Metabolomic Profiling of Cornus mas L. Fruits: Impact of Conventional and Emerging Extraction Methods on Phenolic Composition and Bioactivity” (Antioxidants, 2025).

Structure (SMILES) | α-glucosidase inhibition according to computational analysis (α-glucosidase) | α-amylase inhibition according to computational analysis (α-amylase)
O=c1oc2c(O)c(O)cc3c(=O)oc4c(O)c(O)cc1c4c23 [ellagic acid] | most effective inhibitors | most effective inhibitors
C[C@@H]1O[C@@H](OC[C@H]2O[C@@H](Oc3cc4c(O)cc(O)cc4[o+]c3-c3ccc(O)cc3)[C@H](O)[C@@H](O)[C@H]2O)[C@H](O)[C@H](O)[C@H]1O [pelargonidin 3-robinobioside] | most potent inhibitor | 
